Experimental data: ChEMBL document CHEMBL5608113, “Targeting of CAF-induced therapy resistance in CRC organoid-stroma co-cultures” (2024)
Square brackets hold non-standard residues; d marks the D form. Peptide text beside a SMILES is read from it. Arg(Me) = CNC(=N)NCCC[C@H](N)C(=O)O; d3Pal = N[C@H](Cc1cccnc1)C(=O)O; azaGly = NNC(=O)O

Experiments:
Format in all cases: functional, Homo sapiens
Conditions in all cases: Homo sapiens, read-out: Cell Viability; for viability at 10 µM: Concentration 10 uM; for viability at 1 µM: Concentration 1 uM
Colon cancer organoid [1] = experiment: Targeting of F14 CAF-induced therapy resistance in O14 CRC organoid-stroma co-culture. Cell viability is reported without Gefitinib.
Colon cancer organoid [2] = experiment: Targeting of F14 CAF-induced therapy resistance in O14 CRC organoid-stroma co-culture. Cell viability is reported with Gefitinib.
Colon cancer organoid [3] = experiment: Targeting of F14 CAF-induced therapy resistance in O23 CRC organoid-stroma co-culture. Cell viability is reported without Gefitinib.
Colon cancer organoid [4] = experiment: Targeting of F14 CAF-induced therapy resistance in O23 CRC organoid-stroma co-culture. Cell viability is reported with Gefitinib.
Colon cancer organoid [5] = experiment: Targeting of F14 CAF-induced therapy resistance in O23 CRC organoid-stroma co-culture. Cell viability is reported with SN-38.

Row | SMILES | viability at 10 µM (Colon cancer organoid [1]) | viability at 10 µM (Colon cancer organoid [2]) | viability at 10 µM (Colon cancer organoid [3]) | viability at 10 µM (Colon cancer organoid [4]) | viability at 10 µM (Colon cancer organoid [5]) | viability at 1 µM (Colon cancer organoid [1]) | viability at 1 µM (Colon cancer organoid [2]) | viability at 1 µM (Colon cancer organoid [3]) | viability at 1 µM (Colon cancer organoid [4]) | viability at 1 µM (Colon cancer organoid [5])
1 | CC[C@H](CC(=O)O)n1c(=O)c2ncccc2n(Cc2cn(C)c3cc(C)cc(C)c23)c1=O [BI-1942] | 93.3% | 37.9% | 113% | 60.8% | 65% |  |  |  |  | 
2 | C[C@H](NC(=O)c1cnc2n1[C@](C)(Cc1ccc(C#N)cc1)C(=O)N2c1cc(Cl)c(F)c(Cl)c1)C(=O)NC1(c2ccccn2)CC1 [BI 1950] | 125% | 44.4% | 104% | 52.2% | 85.8% |  |  |  |  | 
3 | CNCCN1CCC(OCc2ccccc2)CC1 | 42.5% | 43.9% | 139% | 59.5% | 69.2% |  |  |  |  | 
4 | C=CC(=O)Nc1ccc2[nH]c(=O)n(C3CCN(Cc4ccc(-c5ccc6c(c5)NC(=O)CO6)cc4)CC3)c2c1 [RL2578] | 101% | 33.2% | 106% | 55.4% | 65.6% |  |  |  |  | 
5 | O=C(NCCCN1CCOC1=O)c1cnc(NCc2cc(Br)ccc2Br)nc1NC1CCCC1 | 126% | 51.8% | 118% | 55.2% | 61.8% |  |  |  |  | 
6 | CO[C@@H](C)c1c(Nc2ccc([C@H](N(C)C(=O)C3CCS(=O)(=O)CC3)C(F)(F)F)cc2)cnc2cc(Cl)nn12 [NVS-MALT1] | 106% | 36.8% | 226% | 60.9% | 89.1% |  |  |  |  | 
7 | CC(C)[C@H](C(=O)Nc1ccc(C(=O)NO)cc1)c1ccccc1 [AR-42] | 34.5% | 23.6% | 210% | 263% | 131% |  |  |  |  | 
8 | Cc1noc([C@H]2C[C@@H](c3ccc(C(F)(F)F)cc3)CN(C(=O)N3CCS(=O)(=O)C3)C2)n1 [BAY-448] | 99.7% | 49% | 124% | 58% | 95.1% |  |  |  |  | 
9 | C[C@H]1CCCN1Cc1nc2cc(NC(=O)c3ccc4cnccc4c3)ccc2[nH]1 | 53.7% | 37.4% | 68.1% | 26.6% | 43.3% |  |  |  |  | 
10 | CCOC(=O)c1c(/C(C#N)=C\N)c2ccc(Cl)c(Cl)c2n1C | 106% | 47.7% | 99.7% | 52% | 68.1% |  |  |  |  | 
11 | CN(C)C(=O)c1ccc(-c2cc(C(=O)N[C@@H]3CCc4ccccc43)no2)cc1O | 77% | 33.6% | 83.1% | 61.6% | 64.6% |  |  |  |  | 
12 | CC(C)NC(=O)N1CC[C@H](NC2=Nc3cc(F)ccc3N(CC(F)F)c3ccc(Cl)cc32)C1 | 89.7% | 36% | 79% | 61.4% | 42.9% |  |  |  |  | 
13 | COc1cc(Nc2nccc(-c3cnn4nc(OC)ccc34)n2)cc(C(F)(F)F)c1 | 3.97% | 3.12% | 53.3% | 19.5% | 23.6% |  |  |  |  | 
14 | O=C(/C=C/N1C[C@H]2C[C@@H]1CN2c1ccccn1)c1ccccc1O | 109% | 70.1% | 77.2% | 38.6% | 45.4% |  |  |  |  | 
15 | CC(=O)c1cc(-c2cc(C(=O)NC3CC3)ccc2C)c2ncccn12 | 83.8% | 65.1% | 108% | 71.5% | 91.2% |  |  |  |  | 
16 | O=C(NCCCC1CCCCC1)c1ccc(CNC(=O)c2cnn(-c3ccccc3)c2C(F)(F)F)cc1 [SR-321] |  |  |  |  |  | 92% | 23.5% | 138% | 48.4% | 78%
17 | Cn1c(C2(NC(=O)c3ccc4c(C5CCCC5)c(-c5ncc(Br)cn5)n(C)c4c3)CCC2)nc2ccc(/C=C/C(=O)O)cc21 [DELEOBUVIR] | 126% | 50.5% | 112% | 94.6% | 60.4% |  |  |  |  | 
18 | CCCCNc1ncc(-c2ccc(CN3CCOCC3)cn2)c(N[C@H]2CC[C@H](O)CC2)n1 | 9.12% | 3.91% | 18.1% | 12% | 28.9% |  |  |  |  | 
19 | O=C(NCc1ccccc1)c1ccc(S(=O)(=O)NCc2ccccc2)cc1 | 103% | 40.5% | 97% | 58.1% | 82.9% |  |  |  |  | 
20 | CC(=O)Nc1ncc(CN2CCC[C@H](Cc3cc(C)nc(C)c3)C2)s1 [JNJ-65355394] | 106% | 47.9% | 103% | 88.8% | 44.3% |  |  |  |  | 

Row | SMILES | viability at 10 µM (Colon cancer organoid [1]) | viability at 10 µM (Colon cancer organoid [2]) | viability at 10 µM (Colon cancer organoid [3]) | viability at 10 µM (Colon cancer organoid [4]) | viability at 10 µM (Colon cancer organoid [5]) | viability at 1 µM (Colon cancer organoid [1]) | viability at 1 µM (Colon cancer organoid [2]) | viability at 1 µM (Colon cancer organoid [3]) | viability at 1 µM (Colon cancer organoid [4]) | viability at 1 µM (Colon cancer organoid [5])
21 | N#CC1(c2ccccn2)CCN(Cc2cc(C(=O)O)c(=O)n3ccccc23)CC1 [MSD-M1PAM] | 84.9% | 37% | 118% | 64.3% | 71.9% |  |  |  |  | 
22 | c1ccc(C2CCN(c3cnc4c(N5CCOCC5)nccn34)CC2)cc1 | 81.3% | 78.2% | 207% | 136% | 108% |  |  |  |  | 
23 | CCNC(=O)c1cc2c(N3CCOCC3C)ccnc2[nH]1 (stereo not given) | 130% | 55.4% | 156% | 56.4% | 97.3% |  |  |  |  | 
24 | CNC(=O)c1cc(C(=O)N[C@H]2[C@@H]3COC[C@@H]32)cc2c1O[C@H](CF)[C@H]2c1ccccc1 [GSK973] | 99.3% | 23.6% | 102% | 58.5% | 46.5% |  |  |  |  | 
25 | COc1cccc(CNC(=O)c2nc3scc(COCc4ccc(C(=O)O)cc4)c3c(=O)[nH]2)c1 [T-26c] |  |  |  |  |  | 173% | 60% | 98.3% | 68.3% | 62.7%
26 | COc1cc(Nc2nc(C)cc(-c3cnn4nc(OC)ccc34)n2)cc(C(F)(F)F)c1 | 115% | 52.6% | 119% | 68.9% | 59.6% |  |  |  |  | 
27 | CNC(=N)NCCC[C@H](NC(=O)[C@H](CC(C)C)NC(=O)NNC(=O)[C@H](Cc1ccccc1)NC(=O)[C@H](CO)NC(=O)[C@H](CC(N)=O)NC(=O)[C@@H](Cc1cccnc1)NC(=O)[C@H](N)Cc1ccc(O)cc1)C(=O)NCC(N)=O [KISS1-543] (H-[dY][d3Pal]NSF[azaGly]L[Arg(Me)]G-NH2) | 103% | 62.9% | 93.8% | 49.7% | 71.6% |  |  |  |  | 
28 | COc1cc(OC)cc(-c2noc(N3CCN(C)C4(CCN(c5ccccc5)CC4)C3)n2)c1 | 114% | 46.8% | 104% | 65.9% | 81.3% |  |  |  |  | 
29 | Cc1nnc2c3ccccc3c(N[C@@H](C)[C@H](c3ccccc3)N(C)C)nn12 | 69.8% | 53.6% | 119% | 55.2% | 141% |  |  |  |  | 
30 | COc1cc(OC)cc(-c2noc(N3CCN(C)C4(CCN(c5ccnc(C)c5)CC4)C3)n2)c1 | 103% | 49.2% | 108% | 74.2% | 101% |  |  |  |  | 
31 | NS(=O)(=O)c1cc(NC(=O)C2(c3ccccc3Cl)CC2)ccc1Oc1cccc(Cl)c1 [BAY-207] | 86.8% | 34.8% | 78.6% | 42.5% | 61% |  |  |  |  | 
32 | CC(C)CC(=O)N1CCc2nc(-c3ccc(Br)cc3)nc(N(C)Cc3ccccc3)c2C1 [THPP-1-NC] |  |  |  |  |  | 95.7% | 39.6% | 127% | 47.3% | 70.5%
33 | CCC(F)(F)c1cc(N2CCC(S(C)(=O)=O)CC2)nc2sc(C(N)=O)c(N)c12 [BI-605906] | 125% | 50.7% | 102% | 53.3% | 62.6% |  |  |  |  | 
34 | COc1ccc(CCc2nc3cc(-c4c(C)noc4C)ccc3n2C[C@H](C)N2CCOCC2)cc1Cl | 121% | 61.4% | 91.4% | 47.7% | 78.6% |  |  |  |  | 
35 | CN(C)[C@H]1CCN(c2cc(-c3ccccc3)nc3ccnn23)C1 [(S)-ZINC-3573] | 68.9% | 33.4% | 98.9% | 55.6% | 49.3% |  |  |  |  | 
36 | Cc1c[nH]c2nccc(Oc3c(F)cc(Nc4cc(Cl)nc(N)n4)cc3F)c12 [BAY-549] |  |  |  |  |  | 96.4% | 30.6% | 124% | 62.9% | 74.7%
37 | Nc1c(C(=O)NCc2ccc(C(=O)NCCCC3CCCCC3)cc2)cnn1-c1ccccc1 [SR-318] |  |  |  |  |  | 85% | 41.3% | 166% | 58.8% | 77.6%
38 | COc1cc2c(cc1OCCCN1CCCC1)N=C(N)C21CCC1 | 82.9% | 46.9% | 122% | 55.4% | 76.1% |  |  |  |  | 
39 | COc1ccc(Cn2ccc3ccc(C(=O)NO)cc32)cc1 | 75.4% | 52.8% | 126% | 89.4% | 94.6% |  |  |  |  | 
